Tested on: HMG-CoA reductase
Test: in vitro HMG-CoA reductase inhibition (protocol of J. Med. Chem., 1985, 28, page 347)
Type: biochemical
Details: percent of the activity exhibited by mevinolin in the same protocol
Method: The intrinsic HMG-CoA reductase inhibition activity of the claimed compounds is measured in the in vitro protocol described is J. Med. Chem., 1985, 28, page 347.

C=C1C=C2C=C[C@H](C)[C@H](CC[C@@H](O)C[C@@H](O)CC(=O)O)C2[C@@H](OC(=O)C(C)CC)C1 (stereo partly shown)
relative inhibitory activity: 50%
